Test results as given in ChEMBL document CHEMBL3608214, “Optimization of Novel Antagonists to the Neurokinin-3 Receptor for the Treatment of Sex-Hormone Disorders (Part II)” (ACS Med Chem Lett, 2015).

Experiments:
[1] = Distribution coefficient, log D of the compound at pH 7.4; format: physicochemical; conditions: octanol/water
[2] = Ratio of unbound drug concentration in brain to plasma of rat at 1 mg/kg after 60 mins
Rattus norvegicus = assay: Inhibition of luteinizing hormone release in orally dosed rat; conditions: po, read-out: MED
[3] = target: Voltage-gated inwardly rectifying potassium channel KCNH2 (Homo sapiens, UniProt Q12809)
Voltage-gated inwardly rectifying potassium channel KCNH2, sequence (Q12809 whole entry): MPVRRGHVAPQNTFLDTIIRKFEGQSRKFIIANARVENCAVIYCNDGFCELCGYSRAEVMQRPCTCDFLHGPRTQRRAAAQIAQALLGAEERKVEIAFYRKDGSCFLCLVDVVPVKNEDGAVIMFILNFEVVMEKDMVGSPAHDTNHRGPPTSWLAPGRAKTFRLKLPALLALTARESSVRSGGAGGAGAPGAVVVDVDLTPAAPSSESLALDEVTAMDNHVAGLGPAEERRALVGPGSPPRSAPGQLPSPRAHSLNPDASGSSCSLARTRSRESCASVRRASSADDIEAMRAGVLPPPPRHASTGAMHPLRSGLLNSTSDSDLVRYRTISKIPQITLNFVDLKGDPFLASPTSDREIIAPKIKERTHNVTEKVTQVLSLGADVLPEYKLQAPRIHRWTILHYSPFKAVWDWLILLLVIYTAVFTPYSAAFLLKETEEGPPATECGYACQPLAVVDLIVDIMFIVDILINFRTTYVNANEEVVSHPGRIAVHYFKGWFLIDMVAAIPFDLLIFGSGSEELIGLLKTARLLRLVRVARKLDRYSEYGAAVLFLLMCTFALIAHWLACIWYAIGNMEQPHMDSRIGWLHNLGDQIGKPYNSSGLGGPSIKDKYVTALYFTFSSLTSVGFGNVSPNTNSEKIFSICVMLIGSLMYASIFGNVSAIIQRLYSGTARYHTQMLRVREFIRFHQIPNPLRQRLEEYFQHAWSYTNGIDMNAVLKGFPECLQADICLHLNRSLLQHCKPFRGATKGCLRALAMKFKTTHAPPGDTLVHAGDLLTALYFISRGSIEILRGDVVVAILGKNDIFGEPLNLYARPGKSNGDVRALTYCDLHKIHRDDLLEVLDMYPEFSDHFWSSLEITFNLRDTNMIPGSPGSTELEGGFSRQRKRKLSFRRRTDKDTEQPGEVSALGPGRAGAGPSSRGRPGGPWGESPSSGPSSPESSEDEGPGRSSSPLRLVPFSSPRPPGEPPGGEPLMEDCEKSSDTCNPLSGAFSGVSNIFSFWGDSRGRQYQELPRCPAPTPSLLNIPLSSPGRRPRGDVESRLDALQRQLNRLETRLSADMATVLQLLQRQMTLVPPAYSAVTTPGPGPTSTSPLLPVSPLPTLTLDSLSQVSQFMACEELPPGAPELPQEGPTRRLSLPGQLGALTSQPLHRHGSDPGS

[4] = Unbound fraction in rat brain at 1 mg/kg after 60 mins
[5] = Binding affinity to monkey NK3R
[6] = Unbound fraction in monkey plasma at 5 mg/kg, po after 90 mins; conditions: rhesus monkey
[7] = Volume of distribution at steady state in monkey at 10 mg/kg, iv; conditions: rhesus monkey, in vivo
Cynomolgus monkey = assay: Inhibition of luteinizing hormone release in orally dosed castrated cynomolgus monkey; conditions: Macaca fascicularis, po, read-out: MED
Cytochrome P450 2C9 = Cytochrome P450 2C9 (Homo sapiens, UniProt P11712)
Cytochrome P450 2C9, sequence (P11712 whole entry): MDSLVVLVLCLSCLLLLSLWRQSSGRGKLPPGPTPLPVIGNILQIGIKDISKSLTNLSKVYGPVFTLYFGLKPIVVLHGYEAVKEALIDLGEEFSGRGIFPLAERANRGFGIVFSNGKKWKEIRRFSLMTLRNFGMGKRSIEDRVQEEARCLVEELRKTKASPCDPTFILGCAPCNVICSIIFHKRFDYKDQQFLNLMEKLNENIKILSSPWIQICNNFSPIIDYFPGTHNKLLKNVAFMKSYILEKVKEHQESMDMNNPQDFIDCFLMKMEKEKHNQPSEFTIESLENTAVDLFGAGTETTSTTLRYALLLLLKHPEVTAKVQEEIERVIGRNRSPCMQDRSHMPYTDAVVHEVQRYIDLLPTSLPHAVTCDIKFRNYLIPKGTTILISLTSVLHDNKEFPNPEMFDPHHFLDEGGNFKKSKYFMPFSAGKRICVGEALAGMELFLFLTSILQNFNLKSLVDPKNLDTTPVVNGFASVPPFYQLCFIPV
Description: Inhibition of CYP2C9 (unknown origin)

Cytochrome P450 2C19 = Cytochrome P450 2C19 (Homo sapiens, UniProt P33261)
Cytochrome P450 2C19, sequence (P33261 whole entry): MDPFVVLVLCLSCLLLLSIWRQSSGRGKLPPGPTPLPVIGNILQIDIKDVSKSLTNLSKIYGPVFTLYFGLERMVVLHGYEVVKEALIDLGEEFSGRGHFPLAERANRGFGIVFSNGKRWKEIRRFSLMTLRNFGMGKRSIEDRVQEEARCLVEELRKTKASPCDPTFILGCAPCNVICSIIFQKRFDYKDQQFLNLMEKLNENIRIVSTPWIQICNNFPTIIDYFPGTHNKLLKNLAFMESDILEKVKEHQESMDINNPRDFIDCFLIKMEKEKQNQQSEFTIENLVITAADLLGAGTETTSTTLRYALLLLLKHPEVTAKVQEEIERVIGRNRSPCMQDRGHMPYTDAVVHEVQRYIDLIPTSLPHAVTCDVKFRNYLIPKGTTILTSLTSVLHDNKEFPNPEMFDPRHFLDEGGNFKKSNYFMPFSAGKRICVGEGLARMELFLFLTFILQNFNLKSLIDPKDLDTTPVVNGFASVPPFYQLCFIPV
Description: Inhibition of CYP2C19 (unknown origin)

Neuromedin-K receptor [8] = target: T1, Neuromedin-K receptor (Homo sapiens, UniProt P29371)
T1 sequence (P29371 whole entry): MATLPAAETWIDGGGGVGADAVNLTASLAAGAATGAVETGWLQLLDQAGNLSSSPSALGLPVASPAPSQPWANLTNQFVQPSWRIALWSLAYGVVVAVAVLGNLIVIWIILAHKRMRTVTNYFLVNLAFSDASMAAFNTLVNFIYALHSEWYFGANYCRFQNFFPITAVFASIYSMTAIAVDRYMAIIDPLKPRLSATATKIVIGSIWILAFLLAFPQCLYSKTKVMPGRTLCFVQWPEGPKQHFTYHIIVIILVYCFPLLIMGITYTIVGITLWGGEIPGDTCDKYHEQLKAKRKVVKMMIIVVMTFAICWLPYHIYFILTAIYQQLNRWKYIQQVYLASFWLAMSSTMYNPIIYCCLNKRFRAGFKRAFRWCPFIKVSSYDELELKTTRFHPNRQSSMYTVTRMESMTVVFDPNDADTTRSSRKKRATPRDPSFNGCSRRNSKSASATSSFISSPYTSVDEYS

Cytochrome P450 1A2 = target: T2, Cytochrome P450 1A2 (Homo sapiens, UniProt P05177)
T2 sequence (P05177 whole entry): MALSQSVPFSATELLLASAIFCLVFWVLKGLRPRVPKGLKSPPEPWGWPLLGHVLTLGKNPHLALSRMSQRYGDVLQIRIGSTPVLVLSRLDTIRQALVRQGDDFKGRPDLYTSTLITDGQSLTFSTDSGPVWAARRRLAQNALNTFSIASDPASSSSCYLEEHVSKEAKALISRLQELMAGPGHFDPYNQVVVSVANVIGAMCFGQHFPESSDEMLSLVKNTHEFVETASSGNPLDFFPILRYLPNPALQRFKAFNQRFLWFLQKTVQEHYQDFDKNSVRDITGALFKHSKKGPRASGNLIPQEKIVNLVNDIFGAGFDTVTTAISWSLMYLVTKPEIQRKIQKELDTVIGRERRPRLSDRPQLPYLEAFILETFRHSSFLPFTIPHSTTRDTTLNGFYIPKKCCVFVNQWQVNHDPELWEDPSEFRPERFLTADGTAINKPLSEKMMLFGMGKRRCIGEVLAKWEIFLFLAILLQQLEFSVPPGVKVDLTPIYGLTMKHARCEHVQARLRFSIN
Description: Inhibition of CYP1A2 (unknown origin)

Cytochrome P450 3A4 = Cytochrome P450 3A4 (Homo sapiens, UniProt P08684)
Cytochrome P450 3A4, sequence (P08684 whole entry): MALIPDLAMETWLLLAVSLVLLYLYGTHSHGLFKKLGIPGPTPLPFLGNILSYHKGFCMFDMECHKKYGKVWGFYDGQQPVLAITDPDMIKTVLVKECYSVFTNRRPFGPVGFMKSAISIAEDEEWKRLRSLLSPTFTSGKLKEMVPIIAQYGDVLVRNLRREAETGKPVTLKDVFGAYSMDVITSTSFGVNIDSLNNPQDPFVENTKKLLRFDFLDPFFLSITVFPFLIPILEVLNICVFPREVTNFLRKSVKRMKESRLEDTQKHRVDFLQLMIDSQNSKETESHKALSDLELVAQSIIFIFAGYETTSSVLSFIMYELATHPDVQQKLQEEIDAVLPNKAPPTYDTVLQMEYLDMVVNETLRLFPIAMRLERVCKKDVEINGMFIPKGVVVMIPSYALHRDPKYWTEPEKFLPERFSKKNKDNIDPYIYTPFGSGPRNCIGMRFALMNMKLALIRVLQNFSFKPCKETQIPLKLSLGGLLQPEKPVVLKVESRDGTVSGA
Description: Inhibition of CYP3A4 (unknown origin)

Cytochrome P450 2D6 = Cytochrome P450 2D6 (Homo sapiens, UniProt P10635)
Cytochrome P450 2D6, sequence (P10635 whole entry): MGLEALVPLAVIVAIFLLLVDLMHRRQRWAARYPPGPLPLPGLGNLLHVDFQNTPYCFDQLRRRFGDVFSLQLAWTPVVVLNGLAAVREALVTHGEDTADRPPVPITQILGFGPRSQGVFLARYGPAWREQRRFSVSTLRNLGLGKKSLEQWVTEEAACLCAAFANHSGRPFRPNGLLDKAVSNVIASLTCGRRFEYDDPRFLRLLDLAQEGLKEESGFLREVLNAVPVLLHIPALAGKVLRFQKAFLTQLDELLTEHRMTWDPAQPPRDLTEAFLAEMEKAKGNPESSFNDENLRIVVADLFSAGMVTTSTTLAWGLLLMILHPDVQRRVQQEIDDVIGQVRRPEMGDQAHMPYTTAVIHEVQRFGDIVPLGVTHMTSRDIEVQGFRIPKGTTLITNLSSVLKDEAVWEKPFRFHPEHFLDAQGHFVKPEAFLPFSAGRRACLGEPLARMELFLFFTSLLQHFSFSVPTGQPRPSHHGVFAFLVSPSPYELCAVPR
Description: Inhibition of CYP2D6 (unknown origin)

Neuromedin-K receptor [9] = target: T1, Neuromedin-K receptor; remark: listed apart in the source
Neuromedin-K receptor [10] = target: T3, Neuromedin-K receptor (Rattus norvegicus, UniProt P16177); assay: Binding affinity to rat NK3R
T3 sequence (P16177 whole entry): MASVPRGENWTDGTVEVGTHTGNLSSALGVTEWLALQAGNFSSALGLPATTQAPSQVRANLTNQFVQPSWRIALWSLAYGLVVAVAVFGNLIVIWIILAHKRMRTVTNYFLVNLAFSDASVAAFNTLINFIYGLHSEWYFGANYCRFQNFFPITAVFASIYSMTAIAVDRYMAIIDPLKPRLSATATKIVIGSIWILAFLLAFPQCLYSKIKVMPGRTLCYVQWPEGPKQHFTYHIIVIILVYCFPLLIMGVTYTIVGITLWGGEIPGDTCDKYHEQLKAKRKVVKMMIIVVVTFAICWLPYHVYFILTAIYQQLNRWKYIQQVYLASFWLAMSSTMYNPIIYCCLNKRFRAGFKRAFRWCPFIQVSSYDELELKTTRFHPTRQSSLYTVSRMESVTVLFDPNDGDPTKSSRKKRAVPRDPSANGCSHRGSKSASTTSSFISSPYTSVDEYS

[11] = Volume of distribution at steady state in rat at 1 mg/kg, iv; conditions: in vivo
[12] = Half life in rat at 1 mg/kg, iv; conditions: in vivo

SMILES | logD [1] | minimal effective dose (Rattus norvegicus) | Ki (Neuromedin-K receptor [8]) | IC50 (Neuromedin-K receptor [9]) | Ki (Neuromedin-K receptor [10]) | other results
C[C@@H]1c2nnc(-c3csc(-c4ccc(F)cc4F)n3)n2CCN1C(=O)c1ccc(-c2cccs2)cc1 | 5 |  |  |  |  | 
Cc1nc(-c2nnc3n2CCN(C(=O)c2ccc(-c4cccs4)cc2)[C@@H]3C)cs1 |  | 60 mg/kg |  |  |  | Kp uu at 1 h [2]: 0.14; IC50 [3]: 24000 nM; logD ([1]; read-out: logD): 3.1; fraction unbound at 1 h [4]: 0.028; Ki [5]: 20 nM; fraction unbound at […] [6]: 0.043; Vd [7]: 1.52 L/kg; minimal effective dose (Cynomolgus monkey): 20 mg/kg
Cc1nnc(-c2nnc3n2CCN(C(=O)c2ccc(F)cc2)[C@@H]3C)s1 | 0.8 |  |  |  |  | 
Cc1noc(-c2nnc3n2CCN(C(=O)c2ccc(F)cc2)[C@@H]3C)n1 | 0.7 |  | 126 nM |  |  | IC50 (Cytochrome P450 2C9): 42000 nM; IC50 (Cytochrome P450 2C19): 34000 nM; IC50 (Cytochrome P450 1A2): 86000 nM; IC50 (Cytochrome P450 3A4): > 100000 nM; IC50 (Cytochrome P450 2D6): > 100000 nM
CC(C)c1noc(-c2nnc3n2CCN(C(=O)c2ccc(F)cc2)[C@@H]3C)n1 | 1.7 |  | 25.1 nM | 39.8 nM |  | 
Cc1nsc(-c2nnc3n2CCN(C(=O)c2ccc(F)cc2)C3)n1 |  | 30 mg/kg | 100 nM | 158 nM | 2030 nM | 
C[C@@H]1c2nnc(-c3ncns3)n2CCN1C(=O)c1ccc(F)cc1 | 1.1 |  |  |  |  | 
Cc1nsc(-c2nnc3n2CCN(C(=O)c2ccc(F)cc2)C3(C)C)n1 | 2 |  |  |  |  | IC50 (Cytochrome P450 2C9): 12000 nM; IC50 (Cytochrome P450 2C19): 4000 nM; IC50 (Cytochrome P450 1A2): 51000 nM; IC50 (Cytochrome P450 3A4): > 100000 nM; IC50 (Cytochrome P450 2D6): > 100000 nM
Cc1nsc(-c2nnc3n2CCN(C(=O)c2ccc(Cl)cc2)[C@@H]3C)n1 |  |  | 20 nM | 31.6 nM |  | 
C[C@@H]1c2nnc(-c3nc(C(F)(F)F)ns3)n2CCN1C(=O)c1ccc(F)cc1 |  | 10 mg/kg |  |  | 85 nM | 
Cc1nsc(-c2nnc3n2CCN(C(=O)c2ccccc2)[C@@H]3C)n1 |  | 30 mg/kg | 50.1 nM | 63.1 nM | 573 nM | 
Cc1nsc(-c2nnc3n2CCN(C(=O)c2ccc(F)cc2)[C@@H]3CCO)n1 |  |  | 31.6 nM | 79.4 nM | 244 nM | 
Cc1nsc(-c2nnc3n2CCN(C(=O)c2ccc(F)cc2)[C@@H]3C)n1 [FEZOLINETANT] |  |  | 25.1 nM | 20 nM | 219 nM | Vd [11]: 0.6 L/kg; half-life [12]: 4.65 h
